Activity calls are given as the source filed them. No cut-off for these calls is given here.

Data on 2 molecules can be found in ChEMBL document CHEMBL3217669, “Activation of a silent phenazine biosynthetic gene cluster reveals a novel natural product and a new resistance mechanism against phenazines” (Medchemcomm, 2012).

What all share (format): functional, organism-based
One experiment deals with Bacillus subtilis. Description: Antibacterial activity against Bacillus subtilis ATCC 14893 assessed as growth inhibition at 0.5 umol after overnight incubation.
The next experiment concerns Streptomyces coelicolor. The experiment can be described thus: Antibacterial activity against Streptomyces coelicolor M512 assessed as growth inhibition up to 0.5 umol after 48 hrs.
In the next experiment the test system is Escherichia coli. The experiment can be described thus: Antibacterial activity against Escherichia coli K-12 assessed as growth inhibition at 0.5 umol after overnight incubation.

Regarding `O=C(O)c1cccc2nc3ccccc3nc12`, in the experiment on Bacillus subtilis, the “growth inhibition (GI)” value was “Active”. In addition, the “growth inhibition (GI)” value in the experiment on Streptomyces coelicolor and in the experiment with Escherichia coli was “inactive” throughout.
`NC(=O)CC[C@H](NC(=O)c1cccc2nc3ccccc3nc12)C(=O)O`: the “growth inhibition (GI)” value in the experiment on Bacillus subtilis, with Streptomyces coelicolor and with Escherichia coli was “inactive” in each case.
